pIC50: −log10 of the molar value.
What was measured:
[1] = target: Histone Deacetylase 4 (HDAC4) catalytic domain (Homo sapiens (Human), UniProt P56524); assay: Biochemical IC50: HDAC enzymatic activity with fluorogenic substrate Boc-Lys(Tfa)-AMC
Experimental: The potency of compounds is quantified by measuring the Histone Deacetylase 4 (HDAC4) catalytic domain enzymatic activity using the fluorogenic substrate, Boc-Lys(Tfa)-AMC. The substrate is deacetylated to Boc-Lys-AMC by HDAC4. Cleavage by trypsin results in the release of the fluorophore AMC from the deacetylated substrate. The fluorescence of the sample is directly related to the histone deacetylase activity in the sample.
Stocks of 60 μL aliquots of the 10 mM compound in DMSO are prepared and stored at −20° C. From one stock aliquot of each compound to be tested and the reference compound, a 16-point serial dilution is prepared according to Table 1 using a 125 μL 16-channel Matrix multi-channel pipette (Matrix Technologies Ltd).
2 μL (200×) of each diluted solution and each control (full activity: 100% DMSO alone or full inhibition 1 mM) is stamped into V-bottomed polypropylene 384-well compound plates using either the Bravo (384-well head from Agilent) or 12.5 μL 16-channel Matrix multi-channel pipette (Matrix Technologies Ltd). […]
5 μL of each solution of 1:20 diluted compound from above is transferred to a clear bottomed, black, 384-well assay plate using the Bravo or the Janus (384-well MDT head from Perkin Elmer). […] Finally, the fluorescence is measured (Excitation: 355 nm, Emission: 460 nm) using PerkinElmer EnVision in top read mode.

[2] = tested on: cellular histone deacetylase enzymatic activity in Jurkat E6-1 cells; assay: Cell (Lys-TFA): cellular HDAC activity in Jurkat E6-1 cells with Boc-Lys(Tfa)-AMC; format: cell-based; settings: Boc-Lys(Tfa)-AMC substrate
Experimental: The potency of the compounds is quantified by measuring the cellular histone deacetylase enzymatic activity using the fluorogenic substrate, Boc-Lys(Tfa)-AMC. After penetration in Jurkat E6-1 cells, the substrate is deacetylated to Boc-Lys-AMC. After cell lysis and cleavage by trypsin, the fluorophore AMC is released from the deacetylated substrate only. The fluorescence of the sample is directly related to the histone deacetylase activity in the sample.
Jurkat E6.1 cells are cultured according to standard cell culture protocols in Jurkat E6.1 Growth Media (RPMI without phenol red, 10% FBS, 10 mM HEPES, and 1 mM Sodium Pyruvate). Jurkat E6.1 cells are counted using a Coulter Counter and resuspended in Jurkat E6.1 growth media at a concentration of 75,000 cells/35 μL. 35 μL or 75,000 cells is seeded into Greiner microtitre assay plates. The plates are then incubated at 37° C. and 5% CO2 while other assay components are being prepared.
Stocks of 70 μL aliquots of the 10 mM compound in DMSO are prepared and stored at −20° C. […]
5 μL of each solution of 1:20 diluted compound from above is transferred to the Greiner microtitre assay plates with 75,000 cells/well using the Bravo. […] Finally the top read fluorescence (Excitation: 355 nm, Emission: 460 nm) is measured using PerkinElmer EnVision.

[3] = tested on: cellular HDAC activity (Lys-Ac); assay: Cell (Lys-Ac): cellular HDAC activity; format: cell-based

Sequence of Histone Deacetylase 4 (HDAC4) catalytic domain (P56524 648-1032): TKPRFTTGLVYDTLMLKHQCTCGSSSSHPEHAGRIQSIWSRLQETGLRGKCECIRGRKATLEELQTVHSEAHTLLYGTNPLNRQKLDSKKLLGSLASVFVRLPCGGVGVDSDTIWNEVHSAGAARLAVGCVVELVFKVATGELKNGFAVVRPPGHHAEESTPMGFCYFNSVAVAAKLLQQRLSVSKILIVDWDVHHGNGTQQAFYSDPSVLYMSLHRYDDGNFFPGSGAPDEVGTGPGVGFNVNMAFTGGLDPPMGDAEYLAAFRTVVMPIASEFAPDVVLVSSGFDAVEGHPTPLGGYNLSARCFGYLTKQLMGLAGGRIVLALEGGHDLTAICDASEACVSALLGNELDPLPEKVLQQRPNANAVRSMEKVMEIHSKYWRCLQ

| Compound | pIC50 [1] | pIC50 [2] | pIC50 [3] |
| --- | --- | --- | --- |
| 5-(3-Fluoro-2-methylphenyl)-1-(4-fluorobenzyl)-N-hydroxy-4,5,6,7-tetrahydro-1H-indazole-5-carboxamide and 5-(3-fluoro-2-methylphenyl)-2-(4-fluorobenzyl)-N-hydroxy-4,5,6,7-tetrahydro-2H-indazole-5-carboxamide [Example 36] | 6.22 | 6.43 | < 4.30 |
| 5-(3-Fluoro-2-methylphenyl)-N-hydroxy-1-(2,2,2-trifluoroethyl)-4,5,6,7-tetrahydro-1H-indazole-5-carboxamide and 5-(3-fluoro-2-methylphenyl)-N-hydroxy-2-(2,2,2-trifluoroethyl)-4,5,6,7-tetrahydro-2H-indazole-5-carboxamide [Example 35] | – | 6.11 | < 4.30 |
| Cc1c(F)cccc1C1(C(=O)NO)CCc2nc(C3CC3)ncc21 (stereo in doubt) [Example 57, (R)-2-Cyclopropyl-5-(3-fluoro-2-methylphenyl)-N-hydroxy-6,7-dihydro-5H-cyclopenta[d]pyrimidine-5-carboxamide] | – | – | < 4.30 |

From patent US10457675B2, “Histone deacetylase inhibitors and compositions and methods of use thereof” (CHDI Foundation, Inc., priority 2014, dated 2019)
